The subject of series [1] is P. berghei exoerythrocytic forms. Put plainly: Liver-stage P. berghei hepatocyte invasion and development assay (luminescence, HepG2). The series is classed as cell-based, Plasmodium berghei. The conditions noted are these: for EC50: Plasmodium berghei, HepG2, 48 h, P. berghei sporozoites, read-out: Liver Stage EC50; for EC50 fold shift compared to asexual stage: Liver Stage EC50: liver stage EC50 / 3D7 EC50. The essentials: (§1)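 HepG2 cells were pretreated with compound for 2 h, then infected with fresh P. berghei sporozoites. After 48 h, exoerythrocytic-form viability was read by BrightGlo luminescence; hepatocyte toxicity was tested in parallel. EC50s came from 12-point curves run in duplicate, starting at 5 μM or 50 μM.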

Series [2] concerns GNF449-R2 (PfATP4 I203L and P990R, parent Dd2). Briefly: Cross-resistance EC50 assay, GNF449-R2. The series is classed as cell-based. Particulars: Plasmodium falciparum, SYBR green 72 hour assay, asynchronized parasites, 96-well or 1536-well format. The text has this: (§2) To evaluate potential overlapping activity against known antimalarial drug targets, we performed dose-response studies with each compound against our assembled set of drug-resistant lines and their corresponding parents, in an asexual blood stage proliferation assay (Table 1). Comparisons were made to the drug-sensitive strain 3D7 when a parent was unavailable (TM90C2A, W2 and Dd2). As laboratories conducted EC50 assays with different strains and protocols, all comparisons were made between assays from the same laboratory and under the same assay conditions. Compounds displaying >5-fold EC50 shifts relative to the parent or sensitive strain were flagged as having potentially non-novel targets. Average fold shifts per strain ranged from 0.82 to 2.34, with a median of 1.23 indicating there was not common resistance to any one resistant clone. No resistance patterns were observed when classifying the compounds based on chemical structure, but this was not surprising given the diversity of compounds chosen. On the other hand, given that these confirmed compounds were derived from larger unconfirmed hit lists to which some filtration criteria may have been applied (for example, elimination of obvious dihydrofolate reductase inhibitors[32]), some[10][11][12][13] pre-existing bias may exist in the set. […]
(§3) Alternatively, a SYBR Green-based proliferation approach was used for the 72-h assay, as previously described. Briefly, a culture of either synchronized or asynchronous parasitized RBCs (0.3% parasitemia and 4% haematocrit) in screening medium (identical to supplemented medium above except no serum was added) was exposed to serial drug dilutions. Plates were incubated at 37 °C and gassed with 93% N2, 4% CO2 and 3% O2 for 72 h. Following incubation, 10 × SYBR Green I (Invitrogen; supplied in 10,000 × concentration) in lysis buffer ([…], 5 mM EDTA, 0.16% Saponin wt per vol and 1.6% Triton X vol per vol) was added to the wells and the plates were incubated overnight at room temperature before plate reading. EC50 assays were repeated three times, taking the average EC50 value from each assay set, and removing any outliers using a single iteration of Grubbs' test, eliminating values with z-scores above the critical z-value (α=0.05). The raw EC50 values for synchronized parasites assayed in a 384-well format are listed in Supplementary Data 4. The raw EC50 values for asynchronous parasites assayed in a 96 or 1536-well format are listed in Supplementary Data 5.
(§4) EC50 values for each strain were compared with those of the corresponding parent strain to determine fold-shift changes and identify resistance. To minimize the cause variance between assays, all comparisons were conducted between strains assayed under identical conditions. A one-way ANOVA followed by a Dunnet's post-test was conducted in GraphPad Prism to identify significant changes between the parent and resistant strain.

Series [3] has as its system P. falciparum strain 3D7. Put plainly: Asexual blood stage 3H-hypoxanthine incorporation assay, 3D7. Format: cell-based, Plasmodium falciparum. The conditions noted are these: Plasmodium falciparum, 3D7, asexual stage, P. falciparum 3D7; read-out: 3D7 EC50. As for the experimental part:
The 48-h assay was carried out in a 96-well format following standard methods using the ^3H-hypoxanthine incorporation assay. The raw EC50 values corresponding to this assay can be found in Supplementary Data 3. Briefly, this assay relies on the parasite incorporation of labelled hypoxanthine that is proportional to P. falciparum growth. A culture of parasitized RBCs (0.5% parasitemia with a percentage of ring stage higher than 70% of total parasitemia, 2.0% haematocrit) in RPMI-1640, […] and 5 μM hypoxanthine was exposed to drug serial dilutions. Plates were incubated for 24 h at 37 °C, 5% CO2, 5% O2 and 90% N2. After 24 h of incubation, ^3H-hypoxanthine was added and plates were incubated for an additional 24-h period. After that, parasites were harvested on a glass fibre filter using a TOMTEC Cell Harvester 96. Filters were dried and melt-on scintillator sheets were used to determine the incorporation of ^3H-hypoxanthine. Radioactivity was measured using a microbeta counter. Data were normalized using the incorporation of the positive (parasitized RBCs without drug) and negative (same culture with artesunate at 2 μM) controls. All assays were conducted in triplicate using three independently grown cultures, and EC50 values were determined using the XLfit add-in module for Excel (version 2.3.1) from Grafit (version 5.3.1.3), where parameter h is the assay hill slope, x is the compound concentration and y is the inhibition of growth effect. The XLfit equation is: […]

For series [4], the system named is CYTbQi (cytb G33A, parent Dd2). Put plainly: Cross-resistance EC50 assay, CYTbQi. The series is classed as cell-based. Particulars: Plasmodium falciparum; SYBR green 72 hour assay; synchronized parasites; 384-well format; strain CYTbQi (Dd2 parent).
From the text: as §2, §3, §4

Series [5] concerns HepG2. Put plainly: Hepatocyte toxicity. The series is classed as cell-based, human. The conditions noted are these: for Hepatocyte Toxicity: HepG2; for EC50 fold shift compared to asexual stage: Hepatocyte Toxicity: hepatocyte toxicity / 3D7 EC50; for Liver Stage / Hepatocyte Toxicity: toxicity fold shift for the liver stage (hepatocyte toxicity vs liver stage EC50). The essentials:
as §1

Series [6] concerns TM90C2A (DHFR, folate pathway; compared with 3D7). Briefly: Cross-resistance EC50 assay, TM90C2A. Format: cell-based. The conditions noted are these: Plasmodium falciparum, 48 h, read-out: TM90C2A (3D7 Parent) Average EC50. The essentials: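 EC50 fold shifts were derived from blood-stage growth assays run in parallel on mutant and parent strains within one laboratory. Growth was measured either by tritiated hypoxanthine uptake (48 h) or SYBR Green I staining (72 h).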

13 compounds from PMC4912613, “A broad analysis of resistance development in the malaria parasite” (Nature Communications, 2016) can be followed below.

As for `CC(NCc1ccccc1)c1cc(Cl)ccc1O` (stereo not shown) [MMV665789], the EC50 is over 5 µM in series [1]; 0.201 µM in series [2]; 1.25 µM in series [3]; 0.674 µM in series [4]; 1.48 µM in series [6]. Further, in series [1], the “EC50 fold shift compared to asexual stage: Liver Stage EC50” value (from here on “EC50 fold shift … Liver Stage EC50”) is reported as over 4. Further, the “Hepatocyte Toxicity” value in series [5] is over 5 µM. Further, the “EC50 fold shift compared to asexual stage: Hepatocyte Toxicity” value (shortened to “EC50 fold shift … Hepatocyte Toxicity”) in series [5] is given as over 4.
With `Cc1ccc(Oc2ncccc2C(=O)Cc2cccc3cccnc23)c(C)c1` [MMV020746], the EC50 in series [1] came to 12.1 µM; in series [2], 2.63 µM; in series [3] it was 0.076 µM; in series [4], 0.268 µM; in series [6], 0.201 µM. Besides, the “EC50 fold shift … Liver Stage EC50” value in series [1] stood at 159.34. Besides, the “Hepatocyte Toxicity” value in series [5] is 31.56 µM. The “EC50 fold shift … Hepatocyte Toxicity” value in series [5] is 415.26. Further, the “Liver Stage / Hepatocyte Toxicity” value in series [5] was 2.61.
Consider `CC(C)(C)OC(=O)N1CCN(c2ccccc2NC(=O)c2cccc(C(F)(F)F)c2Oc2ccc(F)cc2)CC1` [MMV030666], for which the EC50 in series [1] was found to be 0.613 µM; in series [2], 0.248 µM; in series [3] it was 0.486 µM; in series [4] it was 0.352 µM; in series [6], 0.544 µM. In addition, the “EC50 fold shift … Liver Stage EC50” value in series [1] came to 1.26. Moreover, the “Hepatocyte Toxicity” value in series [5] is 10.17 µM. Besides, the “EC50 fold shift … Hepatocyte Toxicity” value in series [5] came out at 20.93. The “Liver Stage / Hepatocyte Toxicity” value in series [5] stood at 16.60.
`CCCN(CCC)CC(O)COc1ccccc1C(=O)Nc1ccccc1` (stereo not shown) [MMV006455]: the half-maximal effective concentration (EC50) in series [1] is over 5 µM; in series [2], 0.309 µM; in series [3], 0.53 µM; in series [4], 0.2 µM; in series [6] it was 0.377 µM. The “EC50 fold shift … Liver Stage EC50” value in series [1] is over 9.4. For the same compound, the “Hepatocyte Toxicity” value in series [5] was over 5 µM. The “EC50 fold shift … Hepatocyte Toxicity” value in series [5] was over 9.4.
`c1cc(-c2cnc3ccc(-c4ccc(N5CCOCC5)cc4)nn23)ccn1` [MMV668311]: the half-maximal effective concentration (EC50) in series [1] was found to be 2.25 µM; in series [2], 0.03 µM; in series [3], 0.048 µM; in series [4], 0.066 µM; in series [6], 0.086 µM. Also, the “EC50 fold shift … Liver Stage EC50” value in series [1] was 46.90. Besides, the “Hepatocyte Toxicity” value in series [5] came out at 5.119 µM. In addition, the “EC50 fold shift … Hepatocyte Toxicity” value in series [5] amounted to 106.65. In addition, the “Liver Stage / Hepatocyte Toxicity” value in series [5] turned out to be 2.27.
Turning to `COc1ccc(N2CCN(C(CNC(=O)C3CCCCC3)c3ccc4c(c3)OCO4)CC2)cc1` (stereo not shown) [MMV019662], the EC50 in series [1] was determined as 18.9 µM; in series [2], 0.452 µM; in series [3], 0.34 µM; in series [4], 0.448 µM; in series [6], 0.209 µM. In series [1], the “EC50 fold shift … Liver Stage EC50” value turned out to be 55.47. In series [5], the “Hepatocyte Toxicity” value was over 50 µM. In series [5], the “EC50 fold shift … Hepatocyte Toxicity” value is recorded as over 147. For the same compound, in series [5], the “Liver Stage / Hepatocyte Toxicity” value is listed as over 2.65.
In the case of `Cc1nc2ccc3ccc(CNc4ccc(C(=O)CC(CCC(=O)O)C(=O)O)cc4)cc3c2c(=O)[nH]1.Cl` (stereo not shown) [MMV027634], the EC50 was over 50 µM in series [1]; 0.204 µM in series [2]; 0.023 µM in series [3]; 0.042 µM in series [4]; 0.064 µM in series [6]. For the same compound, the “EC50 fold shift … Liver Stage EC50” value in series [1] is recorded as over 2170. The “Hepatocyte Toxicity” value in series [5] worked out at 11.61 µM. In addition, the “EC50 fold shift … Hepatocyte Toxicity” value in series [5] is recorded as 504.78.
Consider `OC(CNC1CCCCC1)Cn1c2ccc(I)cc2c2cc(I)ccc21` (stereo not shown) [MMV665882], for which the half-maximal effective concentration (EC50) in series [1] was found to be 3.06 µM; in series [2], 0.028 µM; in series [3] it was 0.0727 µM; in series [4], 0.025 µM; in series [6] it was 0.207 µM. Further, the “EC50 fold shift … Liver Stage EC50” value in series [1] worked out at 42.02. Further, the “Hepatocyte Toxicity” value in series [5] is 13.25 µM. Besides, the “EC50 fold shift … Hepatocyte Toxicity” value in series [5] was found to be 182.26. In addition, the “Liver Stage / Hepatocyte Toxicity” value in series [5] was determined as 4.34.
With `COc1ccc(-c2nc(NC(=O)Cc3ccc4c(c3)OCCO4)sc2C)cc1` [MMV019719], the EC50 came to 10.5 µM in series [1]; 0.405 µM in series [2]; 0.164 µM in series [3]; 0.245 µM in series [4]; 0.21 µM in series [6]. Also, the “EC50 fold shift … Liver Stage EC50” value in series [1] was determined as 63.78. In series [5], the “Hepatocyte Toxicity” value came to 20.33 µM. Besides, the “EC50 fold shift … Hepatocyte Toxicity” value in series [5] came out at 123.96. The “Liver Stage / Hepatocyte Toxicity” value in series [5] is 1.94.
For `CCN(CC)CCn1c(=N)n(CC(O)c2ccc(Cl)c(Cl)c2)c2ccccc21.Cl` (stereo not shown) [MMV000248], the EC50 in series [1] was determined as 5.55 µM; in series [2], 0.497 µM; in series [3], 0.306 µM; in series [4], 0.34 µM; in series [6], 0.466 µM. Also, in series [1], the “EC50 fold shift … Liver Stage EC50” value turned out to be 18.14. The “Hepatocyte Toxicity” value in series [5] came to 20.64 µM. In series [5], the “EC50 fold shift … Hepatocyte Toxicity” value came out at 67.45. Also, the “Liver Stage / Hepatocyte Toxicity” value in series [5] was found to be 3.72.
For `O=C(NC(c1ccccc1)c1ccc2cccnc2c1O)c1ccccc1` (stereo not shown) [MMV666080], the EC50 in series [1] came out at 0.464 µM; in series [2] it was 1.11 µM; in series [3], 0.845 µM; in series [4], 1.29 µM; in series [6] it was 0.86 µM. Further, the “EC50 fold shift … Liver Stage EC50” value in series [1] was 0.55. In addition, the “Hepatocyte Toxicity” value in series [5] came out at 1.309 µM. The “EC50 fold shift … Hepatocyte Toxicity” value in series [5] came to 1.55. In addition, the “Liver Stage / Hepatocyte Toxicity” value in series [5] is 2.82.
On to `O=C(Nc1ccccc1O)c1ccc(Oc2cccc(C(=O)Nc3ccccc3O)c2)cc1` [MMV665888], for which the EC50 in series [1] turned out to be 0.648 µM; in series [2], 0.972 µM; in series [3], 1.21 µM; in series [4], 0.601 µM; in series [6], 1.04 µM. The “EC50 fold shift … Liver Stage EC50” value in series [1] is reported as 0.54. Besides, in series [5], the “Hepatocyte Toxicity” value came out at 4.362 µM. Also, in series [5], the “EC50 fold shift … Hepatocyte Toxicity” value worked out at 3.60. The “Liver Stage / Hepatocyte Toxicity” value in series [5] amounted to 6.73.
Turning to `CCCOCc1cc(CN2CCN(c3cccc(Cl)c3)CC2)c(O)c2ncccc12` [MMV000787], the EC50 is 0.6 µM in series [1]; 1.7 µM in series [2]; 0.942 µM in series [3]; 0.52 µM in series [4]; 1.04 µM in series [6]. In addition, the “Hepatocyte Toxicity” value in series [5] amounted to 2.43 µM. In addition, the “Liver Stage / Hepatocyte Toxicity” value in series [5] is listed as 4.05.
